The results in this text go back to patent US20260083704A1, “LXR MODULATORS WITH BICYCLIC CORE MOIETY FOR TREATING DYSLIPIDEMIAS” (OrsoBio, Inc., priority 2022, published 2026).

Each structure is given as a SMILES string. Read-outs that look alike come from different tables or passages of the source.

Series [1] deals with T1, LXRβ (Homo sapiens, UniProt P55055).
T1 sequence (P55055 1-460): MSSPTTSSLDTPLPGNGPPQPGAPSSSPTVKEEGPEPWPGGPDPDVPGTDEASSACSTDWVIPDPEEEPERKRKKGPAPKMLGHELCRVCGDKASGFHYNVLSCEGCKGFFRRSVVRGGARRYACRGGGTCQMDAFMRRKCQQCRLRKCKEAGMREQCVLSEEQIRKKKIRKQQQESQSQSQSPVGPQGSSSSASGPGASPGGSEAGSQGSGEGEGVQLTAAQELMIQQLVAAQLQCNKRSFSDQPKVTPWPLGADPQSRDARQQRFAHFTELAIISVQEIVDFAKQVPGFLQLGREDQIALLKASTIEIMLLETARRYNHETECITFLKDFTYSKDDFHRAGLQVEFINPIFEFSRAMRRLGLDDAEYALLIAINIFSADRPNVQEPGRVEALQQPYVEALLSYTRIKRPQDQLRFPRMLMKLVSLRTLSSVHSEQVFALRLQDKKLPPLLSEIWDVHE
The series is described as follows: LXR Gal4 reporter transient transfection assay (mammalian two-hybrid, HEK293), LXRβ. It is filed as cell-based. Details: LXRβ (amino acids 156-461); expressed in transfected cells; host or cells: HEK293. Conditions: full length (FL) LXRβ, HEK293; read-out: FL-M2H Gal4β. The gist of the method: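 HEK293 cells transiently co-transfected with full-length or LBD LXRα/LXRβ fused to NFkB activation domain, GAL4-DBD-fused SRC1 or NCoR cofactor domain, GAL4-responsive firefly luciferase reporter and Renilla control. Compound added 4 h post-transfection (≤0.2% DMSO), incubated 16 h; firefly and Renilla luminescence read sequentially.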

For series [2], the target named is T2, LXRα (Homo sapiens, UniProt Q13133).
T2 sequence (Q13133 1-447): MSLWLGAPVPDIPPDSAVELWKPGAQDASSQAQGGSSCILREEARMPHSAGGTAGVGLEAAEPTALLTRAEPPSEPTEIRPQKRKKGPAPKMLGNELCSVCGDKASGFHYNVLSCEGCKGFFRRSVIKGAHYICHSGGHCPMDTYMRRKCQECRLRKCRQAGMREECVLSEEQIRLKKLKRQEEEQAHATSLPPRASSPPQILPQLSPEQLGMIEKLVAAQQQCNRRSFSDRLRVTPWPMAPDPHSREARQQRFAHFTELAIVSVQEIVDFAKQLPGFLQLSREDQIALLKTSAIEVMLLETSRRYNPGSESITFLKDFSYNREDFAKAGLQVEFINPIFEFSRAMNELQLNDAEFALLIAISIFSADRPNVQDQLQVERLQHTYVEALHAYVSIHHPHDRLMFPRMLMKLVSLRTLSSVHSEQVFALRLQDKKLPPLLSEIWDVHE
Briefly: LXR Gal4 reporter transient transfection assay (mammalian two-hybrid, HEK293), LXRα. Details: expressed in transfected cells; host or cells: HEK293. Format: cell-based. To be noted: full length (FL) LXRα, HEK293; read-out: FL-M2H Gal4α. As for the experimental part: (§1) LXRα and LXRβ activity status was determined via detection of interaction with coactivator and corepressor proteins in mammalian two-hybrid experiments (M2H). For this, via transient transfection the full length (FL) proteins of LXRα (amino acids 1-447; NP005684; SEQ ID NO:1) or LXRβ-(amino acids 1-461; NP009052; SEQ ID NO:2) or the ligand-binding domains (LBD) of LXRα (amino acids 155-447 SEQ ID NO:3) or LXRβ (amino acids 156-461; SEQ ID NO:4) were expressed from pCMV-AD (Stratagene) as fusions to the transcriptional activation domain of NFkB. As cofactors, domains of either the steroid receptor coactivator 1 (SRC1; amino acids 552-887; SEQ ID NO:5) or of the corepressor NCoR (amino acids 1906-2312; NP006302; SEQ ID NO:6) were expressed as fusions to the DNA binding domain of the yeast transcription factor GAL4 (from pCMV-BD; Stratagene). Interaction was monitored via activation of a coexpressed Firefly Luciferase Reporter gene under control of a promoter containing repetitive GAL4 response elements (vector pFRLuc; Stratagene). Transfection efficiency was controlled via cotransfection of constitutively active pRL-CMV Renilla reniformis luciferase reporter (Promega). HEK293 cells were grown in minimum essential medium (MEM) with 2 mM L-glutamine and Earle's balanced salt solution supplemented with 8.3% fetal bovine serum, 0.1 mM non-essential amino acids, 1 mM sodium pyruvate, at 37° C. in 5% CO2. 3.5×10^4 cells/well were plated in 96-well cell culture plates in growth medium supplemented with 8.3% fetal bovine serum for 16-20 h to ˜90% confluency. For transfection, medium was taken off and LXR and cofactor expressing plasmids as well as the reporter plasmids are added in 30 μL OPTIMEM/well including polyethylene-imine (PEI) as vehicle. Typical amounts of plasmids transfected/well: pCMV-AD-LXR (5 ng), pCMV-BD-cofactor (5 ng), pFR-Luc (100 ng), pRL-CMV (0.5 ng). Compound stocks were prepared in DMSO, prediluted in MEM to a total volume of 120 μL, and added 4 h after addition of the transfection mixture (final vehicle concentration not exceeding 0.2%). Cells were incubated for additional 16 h, lysed for 10 min in 1×Passive Lysis Buffer (Promega) and Firefly and Renilla luciferase activities were measured sequentially in the same cell extract using buffers containing D-luciferine and coelenterazine, respectively. Measurements of luminescence were done in a BMG-luminometer.
(§2) The potencies of Compound 21/3 and its analog, Compound pre-6/3, against LXRα and LXRβ were evaluated in biochemical binding assays, cellular mammalian two-hybrid (M2H) interaction assays evaluating nuclear receptor co-repressor (NCOR) recruitment, and cellular reporter assays evaluating transcriptional activity (Table 5).

Series [3] has as its target T3, GST-LXRβ ligand-binding domain (Homo sapiens, UniProt P55055).
T3 construct: amino acids 156-461; NP009052; made in house; host or cells: E. coli
T3 sequence (P55055 156-460 limits assumed): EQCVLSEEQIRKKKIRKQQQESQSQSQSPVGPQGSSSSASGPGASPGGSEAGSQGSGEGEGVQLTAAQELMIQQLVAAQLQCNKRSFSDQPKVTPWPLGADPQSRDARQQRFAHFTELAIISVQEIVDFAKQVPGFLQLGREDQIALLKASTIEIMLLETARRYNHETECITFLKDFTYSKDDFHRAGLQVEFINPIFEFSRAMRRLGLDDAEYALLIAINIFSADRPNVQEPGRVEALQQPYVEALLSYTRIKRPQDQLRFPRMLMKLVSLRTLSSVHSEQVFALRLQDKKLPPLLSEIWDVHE
The series is described as follows: TR-FRETβ activity assay (NCoA3 coactivator peptide recruitment). To be noted: 1 μM 24(S)-25-epoxycholesterol prestimulation. It is filed as biochemical. The gist of the method: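 E. coli-expressed GST-LXRβ LBD (aa 156-461, 76 nM) with biotinylated NCoA3 peptide (400 nM) in Tris/HCl pH 6.8 containing 1 μM 24(S)-25-epoxycholesterol agonist. Compounds tested at 50 μM down to 0.002 μM in triplicate. TR-FRET (Tb cryptate/XL665, ex 340, em 615/665 nm) read after 1 h at 4° C.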

Series [4] can be described thus: Pharmacokinetics in mice after single oral dosing (blood/plasma and liver exposure). It is filed as in vivo. To be noted: 20 mg/kg single oral dose, time point 4 h. The protocol: The pharmacokinetics of the compounds was assessed in mice after single dosing and oral administrations. Blood/plasma and liver exposure was measured via LC-MS.
The study design was as follows: • Animals: C57/bl6/J (Janvier) males • Diet: standard rodent chow • Dose: 20 mg/kg • Animal handling: animals were withdrawn from food at least 12 h before administration • Design: single dose oral administration, n=3 animals per group • Sacrifice: at stated time point (4, 12 or 24 h) after administration • Bioanalytics: LC-MS of liver and blood/plasma samples

Series [5] concerns the target T4, LXRβ (Homo sapiens, UniProt P55055).
T4 construct: LXRβ (amino acids 156-461); expressed in transfected cells; host or cells: HEK293
T4 sequence (P55055 156-460): T3 sequence (P55055 156-460 limits assumed)
The series is described as follows: LXR Gal4 reporter transient transfection assay (mammalian two-hybrid, HEK293), LXRβ. Format: cell-based. To be noted: ligand-binding domain (LBD) of LXRβ, HEK293; read-out: LBD-M2H Gal4β. As for the experimental part: as §1, §2

As to `Cc1ccc(S(=O)(=O)n2c(-c3cccc(-c4cc(C)c(C(=O)O)cc4Cl)c3)c(-c3ccsc3C#N)c3cc(F)ccc32)cc1` [Compound 12], the values for the EC50 in series [1], in series [2] and in series [3] were less than 100 nM, less than 100 nM and 100 to 1000 nM, respectively.
Turning to `Cc1ccc(S(=O)(=O)n2c(-c3cccc(-c4ccc(C(=O)NCCS(=O)(=O)O)cc4Cl)c3)c(-c3ccsc3C#N)c3cc(F)ccc32)cc1` [Compound 10], the EC50 in series [1] was 100 to 1000 nM; in series [2] it was less than 100 nM; in series [3], 100 to 1000 nM.
For the molecule `Cc1ccc(S(=O)(=O)n2c(-c3cccc(-c4ccc(C(=O)NO)cc4)c3)c(-c3ccsc3C#N)c3cc(F)ccc32)cc1` [Compound 6], the EC50 in series [1] was less than 100 nM; in series [2], less than 100 nM; in series [3], 100 to 1000 nM.
As to `N#Cc1sccc1-c1c(-c2cccc(C3CC3C(=O)O)c2)n(S(=O)(=O)c2ccc(Cl)cc2)c2ccc(F)cc12` (stereo not drawn) [3/24], the EC50 in series [1] is less than 100 nM. Moreover, in series [4], the blood/plasma exposure result is given as “D (<100 nM)”, the liver exposure result was “C (1 μM to ≤3 μM)” and the liver/blood ratio result is listed as “D (>30)”. Moreover, the EC50 in series [5] was less than 100 nM.
Consider `Cc1ccc(S(=O)(=O)n2c(-c3cccc(-c4ccc(-c5nnn[nH]5)cc4Cl)c3)c(-c3ccsc3C#N)c3cc(F)ccc32)cc1` [Compound 37], for which the EC50 in series [1] is less than 100 nM; in series [2], less than 100 nM; in series [3] it was 100 to 1000 nM.
For `Cc1ccc(S(=O)(=O)n2c(-c3cccc(-c4ccc(C(=O)O)cc4Cl)c3)c(-c3ccccc3C#N)c3cc(F)ccc32)cc1` [Compound 11], the EC50 in series [1], in series [2] and in series [3] was less than 100 nM in each case.
Regarding `Cc1ccc(S(=O)(=O)n2c(-c3cccc(-c4ccc(C(N)=O)cc4)c3)c(-c3ccsc3C#N)c3cc(F)ccc32)cc1` [6/2], the EC50 is less than 100 nM in series [1], less than 100 nM in series [2] and 100 to 1000 nM in series [3].
Consider `N#Cc1cccc(C#N)c1-c1c(-c2cccc(-c3ccc(C(=O)O)cc3Cl)c2)n(S(=O)(=O)c2ccc(C(F)F)cc2)c2cc(F)c(O)cc12` [Compound 44], for which the results for the EC50 in series [1], in series [2] and in series [3] were less than 100 nM, less than 100 nM and 100 to 1000 nM, respectively.
Take `Cc1ccc(S(=O)(=O)n2c(-c3cccc(-c4ccc(CN(C)C)cc4Cl)c3)c(-c3ccsc3C#N)c3cc(F)ccc32)cc1` [Compound 2]: the EC50 in series [1] was less than 100 nM; in series [2], less than 100 nM; in series [3], 100 to 1000 nM.
As for `N#Cc1cccc(-c2c(-c3cccc(-c4ccc(C(=O)O)cc4Cl)c3)n(S(=O)(=O)c3ccc(C(F)F)cc3)c3ccc(F)cc23)c1` [C11/48], the EC50 in series [1], in series [2] and in series [3] was less than 100 nM in each case.
Regarding `Cc1ccc(S(=O)(=O)n2c(-c3cccc(-c4cncc(S(=O)(=O)CC(=O)O)c4)c3)c(-c3ccsc3C#N)c3ccccc32)cc1` [Compound 5], the figures for the EC50 in series [1], in series [2] and in series [3] were 1000 to 10000 nM, 1000 to 10000 nM and 100 to 1000 nM, respectively.
Take `Cc1cccc(C#N)c1-c1c(-c2cccc(-c3ccc(C(=O)O)cc3Cl)c2)n(S(=O)(=O)c2ccc(C(F)F)cc2)c2ccc(F)cc12` [41/2, 2-chloro-3′-(3-(2-cyano-6-methylphenyl)-1-((4-(difluoro-methyl)phenyl)sulfonyl)-5-fluoro-1H-indol-2-yl)-[1,1′-biphenyl]-4-carboxylic acid]: the EC50 in series [2] and in series [3] was less than 100 nM in each case.
In the case of `N#Cc1sccc1-c1c(-c2cccc(N3CC(C(=O)O)C3)c2)n(S(=O)(=O)c2ccc(Cl)cc2)c2ccccc12` [30/7], in series [4], the blood/plasma exposure entry is listed as “D (<100 nM)”, the liver exposure entry is given as “B (300 nM to ≤1 μM)” and the liver/blood ratio result was “D (>30)”. Further, the EC50 in series [5] is less than 100 nM. The EC50 in series [3] lay within 100 to 1000 nM.
As for `N#Cc1cccc(C#N)c1-c1c(-c2cccc(-c3ccc(C(=O)O)cc3)c2)n(S(=O)(=O)c2ccc(C(F)F)cc2)c2ccc(F)cc12` [11/50], the EC50 in series [1], in series [2] and in series [3] was less than 100 nM each time.
In the case of `Cc1cccc(C#N)c1-c1c(-c2cccc(-c3ccc(C(=O)O)cc3Cl)c2)n(S(=O)(=O)c2ccc(C(F)F)cc2)c2ccc(F)cc12` [11/36], the EC50 in series [1], in series [2] and in series [3] was less than 100 nM throughout.
For the molecule `Cc1ccc(S(=O)(=O)n2c(-c3cccc(-c4cnc(C(=O)O)cc4C)c3)c(-c3ccsc3C#N)c3cc(F)ccc32)cc1` [Compound 36], the EC50 in series [1] was 100 to 1000 nM; in series [2], 100 to 1000 nM; in series [3], 1000 to 10000 nM.
